Assays:
Test in all cases: Kinase profiling panel
Type in all cases: biochemical
ASK1 = system: ASK1
Procedure: (§1) Supplementary Table 2. ZT-1a kinase profiling data6.
(§2) ZT-1a was tested at 10 and 1 µM against a panel of 140 recombinant kinases in an enzymatic
(§3) activity-based assay performed by the International Centre for Kinase Profiling in the MRC
(§4) Protein Phosphorylation and Ubiquitylation Unit. Values represent % residual kinase activity

CAMKKb = system: CAMKKb
Procedure: as §1, §2, §3, §4

CK1γ2 = system: CK1γ2
Procedure: as §1, §2, §3, §4

CK1δ = system: CK1δ
Procedure: as §1, §2, §3, §4

DDR2 = system: DDR2
Procedure: as §1, §2, §3, §4

DYRK2 = system: DYRK2
Procedure: as §1, §2, §3, §4

EPH-B4 = system: EPH-B4
Procedure: as §1, §2, §3, §4

ERK1 = system: ERK1
Procedure: as §1, §2, §3, §4

GSK3b = system: GSK3b
Procedure: as §1, §2, §3, §4

HIPK2 = system: HIPK2
Procedure: as §1, §2, §3, §4

IGF-1R = system: IGF-1R
Procedure: as §1, §2, §3, §4

IRAK4 = system: IRAK4
Procedure: as §1, §2, §3, §4

IR = system: IR
Procedure: as §1, §2, §3, §4

LKB1 = system: LKB1
Procedure: as §1, §2, §3, §4

Lck = system: Lck
Procedure: as §1, §2, §3, §4

MAP4K3 = system: MAP4K3
Procedure: as §1, §2, §3, §4

MAPKAP-K3 = system: MAPKAP-K3
Procedure: as §1, §2, §3, §4

MARK2 = system: MARK2
Procedure: as §1, §2, §3, §4

MARK4 = system: MARK4
Procedure: as §1, §2, §3, §4

MEKK1 = system: MEKK1
Procedure: as §1, §2, §3, §4

MINK1 = system: MINK1
Procedure: as §1, §2, §3, §4

MSK1 = system: MSK1
Procedure: as §1, §2, §3, §4

MST3 = system: MST3
Procedure: as §1, §2, §3, §4

NEK6 = system: NEK6
Procedure: as §1, §2, §3, §4

PAK2 = system: PAK2
Procedure: as §1, §2, §3, §4

PAK4 = system: PAK4
Procedure: as §1, §2, §3, §4

PAK5 = system: PAK5
Procedure: as §1, §2, §3, §4

PDK1 = system: PDK1
Procedure: as §1, §2, §3, §4

PIM2 = system: PIM2
Procedure: as §1, §2, §3, §4

PIM3 = system: PIM3
Procedure: as §1, §2, §3, §4

PKD1 = system: PKD1
Procedure: as §1, §2, §3, §4

ROCK 2 = system: ROCK 2
Procedure: as §1, §2, §3, §4

S6K1 = system: S6K1
Procedure: as §1, §2, §3, §4

SIK2 = system: SIK2
Procedure: as §1, §2, §3, §4

TAK1 = system: TAK1
Procedure: as §1, §2, §3, §4

TIE2 = system: TIE2
Procedure: as §1, §2, §3, §4

TTK = system: TTK
Procedure: as §1, §2, §3, §4

ULK1 = system: ULK1
Procedure: as §1, §2, §3, §4

ULK2 = system: ULK2
Procedure: as §1, §2, §3, §4

WNK1 = system: WNK1
Procedure: as §1, §2, §3, §4

p38d MAPK = system: p38d MAPK
Procedure: as §1, §2, §3, §4

SMILES: Cc1cc(C(C#N)c2ccc(Cl)cc2)c(Cl)cc1NC(=O)c1cc(Cl)ccc1O (stereo not shown) [ZT-1a, 5-chloro-N-(5-chloro-4-((4-chlorophenyl)(cyano)methyl)-2-methylphenyl)-2-hydroxybenzamide]
- % residual kinase activity (ASK1; 1 µM): 101±3%
- % residual kinase activity (ASK1; 10 µM): 100±11%
- % residual kinase activity (CAMKKb; 1 µM): 115±10%
- % residual kinase activity (CAMKKb; 10 µM): 102±9%
- % residual kinase activity (CK1γ2; 1 µM): 112±12%
- % residual kinase activity (CK1γ2; 10 µM): 124±23%
- % residual kinase activity (CK1δ; 1 µM): 116±5%
- % residual kinase activity (CK1δ; 10 µM): 114±9%
- % residual kinase activity (DDR2; 1 µM): 111±20%
- % residual kinase activity (DDR2; 10 µM): 99±8%
- % residual kinase activity (DYRK2; 1 µM): 111±15%
- % residual kinase activity (DYRK2; 10 µM): 97±10%
- % residual kinase activity (EPH-B4; 1 µM): 100±8%
- % residual kinase activity (EPH-B4; 10 µM): 151±33%
- % residual kinase activity (ERK1; 1 µM): 107±16%
- % residual kinase activity (ERK1; 10 µM): 109±18%
- % residual kinase activity (GSK3b; 1 µM): 39±4%
- % residual kinase activity (GSK3b; 10 µM): 38±12%
- % residual kinase activity (HIPK2; 1 µM): 90±14%
- % residual kinase activity (HIPK2; 10 µM): 91±4%
- % residual kinase activity (IGF-1R; 1 µM): 145±2%
- % residual kinase activity (IGF-1R; 10 µM): 123±3%
- % residual kinase activity (IRAK4; 1 µM): 127±0%
- % residual kinase activity (IRAK4; 10 µM): 127±11%
- % residual kinase activity (IR; 1 µM): 105±2%
- % residual kinase activity (IR; 10 µM): 86±13%
- % residual kinase activity (LKB1; 1 µM): 107±8%
- % residual kinase activity (LKB1; 10 µM): 115±11%
- % residual kinase activity (Lck; 1 µM): 112±13%
- % residual kinase activity (Lck; 10 µM): 127±14%
- % residual kinase activity (MAP4K3; 1 µM): 134±5%
- % residual kinase activity (MAP4K3; 10 µM): 88±2%
- % residual kinase activity (MAPKAP-K3; 1 µM): 96±26%
- % residual kinase activity (MAPKAP-K3; 10 µM): 72±8%
- % residual kinase activity (MARK2; 1 µM): 103±8%
- % residual kinase activity (MARK2; 10 µM): 89±15%
- % residual kinase activity (MARK4; 1 µM): 68±8%
- % residual kinase activity (MARK4; 10 µM): 59±9%
- % residual kinase activity (MEKK1; 1 µM): 109±1%
- % residual kinase activity (MEKK1; 10 µM): 93±16%
- % residual kinase activity (MINK1; 1 µM): 107±5%
- % residual kinase activity (MINK1; 10 µM): 108±6%
- % residual kinase activity (MSK1; 1 µM): 114±6%
- % residual kinase activity (MSK1; 10 µM): 112±14%
- % residual kinase activity (MST3; 1 µM): 109±8%
- % residual kinase activity (MST3; 10 µM): 113±15%
- % residual kinase activity (NEK6; 1 µM): 107±6%
- % residual kinase activity (NEK6; 10 µM): 108±1%
- % residual kinase activity (PAK2; 1 µM): 110±4%
- % residual kinase activity (PAK2; 10 µM): 93±8%
- % residual kinase activity (PAK4; 1 µM): 81±16%
- % residual kinase activity (PAK4; 10 µM): 51±3%
- % residual kinase activity (PAK5; 1 µM): 93±26%
- % residual kinase activity (PAK5; 10 µM): 93±4%
- % residual kinase activity (PDK1; 1 µM): 92±6%
- % residual kinase activity (PDK1; 10 µM): 69±17%
- % residual kinase activity (PIM2; 1 µM): 93±5%
- % residual kinase activity (PIM2; 10 µM): 93±3%
- % residual kinase activity (PIM3; 1 µM): 115±12%
- % residual kinase activity (PIM3; 10 µM): 99±2%
- % residual kinase activity (PKD1; 1 µM): 89±0%
- % residual kinase activity (PKD1; 10 µM): 79±10%
- % residual kinase activity (ROCK 2; 1 µM): 109±6%
- % residual kinase activity (ROCK 2; 10 µM): 101±10%
- % residual kinase activity (S6K1; 1 µM): 119±10%
- % residual kinase activity (S6K1; 10 µM): 81±2%
- % residual kinase activity (SIK2; 1 µM): 105±16%
- % residual kinase activity (SIK2; 10 µM): 76±8%
- % residual kinase activity (TAK1; 1 µM): 117±22%
- % residual kinase activity (TAK1; 10 µM): 103±5%
- % residual kinase activity (TIE2; 1 µM): 139±74%
- % residual kinase activity (TIE2; 10 µM): 73±11%
- % residual kinase activity (TTK; 1 µM): 104±2%
- % residual kinase activity (TTK; 10 µM): 91±5%
- % residual kinase activity (ULK1; 1 µM): 87±10%
- % residual kinase activity (ULK1; 10 µM): 89±13%
- % residual kinase activity (ULK2; 1 µM): 110±11%
- % residual kinase activity (ULK2; 10 µM): 49±9%
- % residual kinase activity (WNK1; 1 µM): 125±17%
- % residual kinase activity (WNK1; 10 µM): 122±35%
- % residual kinase activity (p38d MAPK; 1 µM): 95±1%
- % residual kinase activity (p38d MAPK; 10 µM): 112±2%

Reference: paper PMC6946680, “Modulation of brain cation-Cl^− cotransport via the SPAK kinase inhibitor ZT-1a” (Nature Communications, 2020)
